Values after ≈ are worked out from the molar mass of the structure shown.
Tests used:
HBV DNA = assay: In vitro anti-HBV activity: replication of HBV DNA in 2.2.15 cells (dot hybridization); assay type: cell-based, Hepatitis B virus (HBV); conditions: for IC50: Hepatitis B virus, read-out: DNA replication IC50; for DNA replication SI: selectivity index
Protocol: (§1) All compounds were evaluated for their anti-HBV activities, namely the ability to inhibit the replication of HBV DNA and the production of HBsAg and HBeAg in HBV-infected 2.2.15 cells.
(§2) The samples were dissolved in DMSO for appropriate concentrations, and then each was diluted 3-fold with culture medium. The 2.2.15 cells were planted into 96-well culture plates. […] The culture supernatants and 2.2.15 cells were collected respectively on the 8th plant day. The secretion concentrations of HBsAg and HBeAg in the culture supernatants were measured by RIA on SPRIA Kit for Detection of HBsAg and HBeAg (Beijing North Institute of Biological Technology), and the replication of HBV DNA was measured by dot hybridization with a^32PdCTP (FuRui Biological Technology Ltd., China).

2.2.15 cells = assay: Cytotoxicity (TC50) in 2.2.15 cells; assay type: cell-based
Protocol: as §1, §2

HIV-1 protease = target: T1, HIV-1 protease (Human immunodeficiency virus type 1 group M subtype B, UniProt P04585); assay: Anti-HIV-1 protease activity (fluorescence labeled substrate); assay type: biochemical; conditions: for inhibition ratio at 0.5 ug/ml: sample concentration 0.5 ug/ml; for inhibition ratio at 2.0 ug/ml: sample concentration 2.0 ug/ml; for inhibition ratio at 10 ug/ml: sample concentration 10 ug/ml; for inhibition ratio at 50 ug/ml: sample concentration 50 ug/ml; for inhibition ratio at 250 ug/ml: sample concentration 250 ug/ml
T1 construct: The genetically engineered target enzyme (HIV-1 protease, preserved at −85° C.)
Protocol: HIV-1 protease can cut the fluorescence labeled substrate under optimal condition and reaction system, so the activity of enzyme is determined by the fluorescence in the product of enzymatic reaction. The samples are added into the reaction system to observe the inhibitive effect on the enzyme.
The samples and the reference drug Indinavir ([…].) were dissolved in DMSO or redistilled water for appropriate concentration. Each was diluted 5-fold and then added into the buffer containing fluorescence labeled substrate (MP Co.). The genetically engineered target enzyme (HIV-1 protease, preserved at −85° C.) was added to the buffer and incubated under the optimal reaction condition. The fluorescence was determined by FLUO star Galaxy fluorometer.

With `CCOC(=O)c1c(C[S+]([O-])c2c(Cl)cccc2Cl)n(C2CC2)c2cc(Br)c(O)c(Cn3ccnc3C)c12` (stereo not drawn) [Example 137, Ethyl 6-bromo-1-cyclopropyl-5-hydroxy-4-[(2-methyl-1-imidazolyl)methyl]-2-[(2,6-dichlorophenyl)sulfinylmethyl]-1H-indole-3-carboxylate] the IC50 (HBV DNA) was 35.5 µg/mL (≈ 56.7 µM), the “DNA replication SI” value (HBV DNA) was 4.51 and the TC50 (2.2.15 cells) was 160.2 µg/mL (≈ 256 µM).
With `CCOC(=O)c1c(C[S+]([O-])Cc2ccoc2)n(C)c2ccc(O)c(CN3CCCCC3)c12.Cl` (stereo not drawn) [Example 77, Ethyl 5-hydroxy-1-methyl-4-(piperidinomethyl)-2-[(3-furylmethyl)sulfinylmethyl]-1H-indole-3-carboxylate hydrochloride] the IC50 (HBV DNA) was 18.1 µg/mL, the “DNA replication SI” value (HBV DNA) was 4.09 and the TC50 (2.2.15 cells) was 74.07 µg/mL.
For `CCOC(=O)c1c(C[S+]([O-])c2ccc(F)c(F)c2)n(C2CC2)c2cc(Br)c(O)c(Cn3ccnc3)c12` (stereo not drawn) [Example 119, Ethyl 6-bromo-1-cyclopropyl-5-hydroxy-4-[(1-imidazolyl)methyl]-2-[(3,4-difluorophenyl)sulfinylmethyl]-1H-indole-3-carboxylate], the IC50 (HBV DNA) was 3.6 µg/mL (≈ 6.22 µM), the “DNA replication SI” value (HBV DNA) was 5.8 and the TC50 (2.2.15 cells) was 21.11 µg/mL (≈ 36.5 µM).
With `CCOC(=O)c1c(C[S+]([O-])c2ccc(F)c(F)c2)n(C)c2cc(Br)c(O)c(Cn3ccnc3C)c12.Cl` (stereo not drawn) [Example 133, Ethyl 6-bromo-5-hydroxy-1-methyl-4-[(2-methyl-1-imidazolyl)methyl]-2-[(3,4-difluorophenyl)sulfinylmethyl]-1H-indole-3-carboxylate hydrochloride] the IC50 (HBV DNA) was 6.37 µg/mL, the “DNA replication SI” value (HBV DNA) was 6.28 and the TC50 (2.2.15 cells) was 40.0 µg/mL.
`CCOC(=O)c1c(CS(=O)(=O)c2ccc(C(F)(F)F)cc2)n(C)c2cc(Br)c(O)c(Cn3ccnc3C)c12` [Example 180, Ethyl 6-bromo-5-hydroxy-1-methyl-4-[(2-methyl-1-imidazolyl)methyl]-2-[(4-trifluoromethylphenyl)sulfonylmethyl]-1H-indole-3-carboxylate] was tested, and the IC50 (HBV DNA) was 3.56 µg/mL (≈ 5.79 µM), the “DNA replication SI” value (HBV DNA) was 14.43 and the TC50 (2.2.15 cells) was 51.36 µg/mL (≈ 83.6 µM).
With `CCOC(=O)c1c(C[S+]([O-])Cc2ccccc2F)n(C2CC2)c2cc(Br)c(O)c(Cn3ccnc3C)c12` (stereo not drawn) [Example 183, Ethyl 6-bromo-1-cyclopropyl-5-hydroxy-4-[(2-methyl-1-imidazolyl)methyl]-2-[(2-fluorobenzyl)sulfinylmethyl]-1H-indole-3-carboxylate] the IC50 (HBV DNA) was 3.45 µg/mL (≈ 5.86 µM), the “DNA replication SI” value (HBV DNA) was 10.74 and the TC50 (2.2.15 cells) was 37.04 µg/mL (≈ 62.9 µM).
`CCOC(=O)c1c(C[S+]([O-])Cc2ccc(F)cc2)n(C)c2cc(Br)c(O)c(CN(C)C)c12` (stereo not drawn) [Example 80, Ethyl 6-bromo-4-[(dimethylamino)methyl]-5-hydroxy-1-methyl-2-[(4-fluorobenzyl)sulfinylmethyl]-1H-indole-3-carboxylate] was tested, and the IC50 (HBV DNA) was 0.27 µg/mL (≈ 0.514 µM), the “DNA replication SI” value (HBV DNA) was 3.37 and the TC50 (2.2.15 cells) was under 0.91 µg/mL.
With `CCOC(=O)c1c(CS(=O)(=O)Cc2ccccc2F)n(C2CC2)c2cc(Br)c(O)c(Cn3ccnc3C)c12` [Example 165, Ethyl 6-bromo-1-cyclopropyl-5-hydroxy-4-[(2-methyl-1-imidazolyl)methyl]-2-[(2-fluorobenzyl)sulfonylmethyl]-1H-indole-3-carboxylate] the IC50 (HBV DNA) was 3.14 µg/mL (≈ 5.19 µM), the “DNA replication SI” value (HBV DNA) was 2.47 and the TC50 (2.2.15 cells) was 7.76 µg/mL (≈ 12.8 µM).
With `CCOC(=O)c1c(C[S+]([O-])c2ccc(F)cc2)n(C2CC2)c2cc(Br)c(O)c(Cn3ccnc3)c12` (stereo not drawn) [Example 117, Ethyl 6-bromo-1-cyclopropyl-5-hydroxy-4-[(1-imidazoly)methyl]-2-[(4-fluorophenyl)sulfinylmethyl]-1H-indole-3-carboxylate] the IC50 (HBV DNA) was 11.4 µg/mL (≈ 20.3 µM), the “DNA replication SI” value (HBV DNA) was 4.87 and the TC50 (2.2.15 cells) was 55.56 µg/mL (≈ 99.1 µM).
For `CCOC(=O)c1c(C[S+]([O-])Cc2ccco2)n(C2CC2)c2cc(Br)c(O)c(Cn3ccnc3)c12` (stereo not drawn) [Example 130, Ethyl 6-bromo-1-cyclopropyl-5-hydroxy-4-[(1-imidazolyl)methyl]-2-[(2-furylmethyl)sulfinylmethyl]-1H-indole-3-carboxylate], the IC50 (HBV DNA) was 5.94 µg/mL (≈ 10.9 µM), the “DNA replication SI” value (HBV DNA) was 4.16 and the TC50 (2.2.15 cells) was 24.69 µg/mL (≈ 45.2 µM).
With `CCOC(=O)c1c(C[S+]([O-])Cc2ccc(F)cc2)n(C)c2cc(Br)c(O)c(CN3CCOCC3)c12.Cl` (stereo not drawn) [Example 64, Ethyl 6-bromo-5-hydroxy-1-methyl-4-(morpholinomethyl)-2-[(4-fluorobenzyl)sulfinylmethyl]-1H-indole-3-carboxylate hydrochloride] the IC50 (HBV DNA) was 0.76 µg/mL, the “DNA replication SI” value (HBV DNA) was 32.48 and the TC50 (2.2.15 cells) was 24.69 µg/mL.
For `CCOC(=O)c1c(C[S+]([O-])c2ccc(C)cc2)n(C)c2ccc(O)c(Cn3ccnc3C)c12` (stereo not drawn) [Example 142, Ethyl 5-hydroxy-1-methyl-4-[(2-methyl-1-imidazolyl)methyl]-2-[(4-methylphenyl)sulfinylmethyl]-1H-indole-3-carboxylate], the IC50 (HBV DNA) was 23.8 µg/mL (≈ 51.1 µM), the “DNA replication SI” value (HBV DNA) was 4.49 and the TC50 (2.2.15 cells) was 106.83 µg/mL (≈ 229 µM).
For `CCOC(=O)c1c(C[S+]([O-])c2cccc(Cl)c2)n(C)c2cc(Br)c(O)c(CN3CCOCC3)c12` (stereo not drawn) [Example 59, Ethyl 6-bromo-5-hydroxy-1-methyl-4-(morpholinomethyl)-2-[(3-chlorophenyl)sulfinylmethyl]-1H-indole-3-carboxylate], the IC50 (HBV DNA) was 26.6 µg/mL (≈ 46.7 µM), the “DNA replication SI” value (HBV DNA) was 10.8 and the TC50 (2.2.15 cells) was 288.68 µg/mL (≈ 507 µM).
`CCOC(=O)c1c(CS(=O)(=O)Cc2ccccc2)n(C)c2cc(Br)c(O)c(Cn3ccnc3C)c12` [Example 168, Ethyl 6-bromo-5-hydroxy-1-methyl-4-[(2-methyl-1-imidazolyl)methyl]-2-(benzylsulfonylmethyl)-1H-indole-3-carboxylate] was tested, and the IC50 (HBV DNA) was 7.04 µg/mL (≈ 12.6 µM), the “DNA replication SI” value (HBV DNA) was 5.06 and the TC50 (2.2.15 cells) was 35.61 µg/mL (≈ 63.5 µM).
For `CCOC(=O)c1c(CS(=O)(=O)Cc2ccco2)n(C2CC2)c2ccc(O)c(CN3CCCC3)c12` [Example 85], the IC50 (HBV DNA) was 1.52 µg/mL (≈ 3.12 µM), the “DNA replication SI” value (HBV DNA) was 9.38 and the TC50 (2.2.15 cells) was 14.26 µg/mL (≈ 29.3 µM).
For `CCOC(=O)c1c(C[S+]([O-])c2ccccc2OC)n(C)c2cc(Br)c(O)c(Cn3ccnc3C)c12.Cl` (stereo not drawn) [Example 135, Ethyl 6-bromo-5-hydroxy-1-methyl-4-[(2-methyl-1-imidazolyl)methyl]-2-[(2-methoxyphenyl)sulfinylmethyl]-1H-indole-3-carboxylate hydrochloride], the IC50 (HBV DNA) was 2.4 µg/mL, the “DNA replication SI” value (HBV DNA) was 22.3 and the TC50 (2.2.15 cells) was 53.42 µg/mL.
In the case of `CCOC(=O)c1c(C[S+]([O-])c2ccccc2OC)n(C)c2cc(Br)c(O)c(CNC(=N)N)c12.Cl` (stereo not drawn) [Example 151, Ethyl 6-bromo-4-(guanidinylmethyl)-5-hydroxy-1-methyl-2-[(2-methoxyphenyl)-sulfinylmethyl]-1H-indole-3-carboxylate hydrochloride], the IC50 (HBV DNA) is reported as 1.8 µg/mL, the “DNA replication SI” value (HBV DNA) is reported as 35.6 and the TC50 (2.2.15 cells) is reported as 64.15 µg/mL.
With `CCOC(=O)c1c(C[S+]([O-])c2ccccc2)n(C)c2cc(Br)c(O)c(Cn3ccnc3C)c12` (stereo not drawn) [Example 131, Ethyl 6-bromo-5-hydroxy-1-methyl-4-[(2-methyl-1-imidazolyl)methyl]-2-(phenylsulfinylmethyl)-1H-indole-3-carboxylate] the IC50 (HIV-1 protease) was 294 µM, the “inhibition ratio at 0.5 ug/ml” value (HIV-1 protease) was 4.6 and the “inhibition ratio at 2.0 ug/ml” value (HIV-1 protease) was 14.6. The “inhibition ratio at 10 ug/ml” value (HIV-1 protease) was 7.1, the “inhibition ratio at 50 ug/ml” value (HIV-1 protease) was 7.7 and the “inhibition ratio at 250 ug/ml” value (HIV-1 protease) was 55.1.
`CCOC(=O)c1c(CS(=O)(=O)c2ccc(C)cc2)n(C)c2ccc(O)c(Cn3ccnc3)c12` [Example 164, Ethyl 5-hydroxy-4-[(1-imidazolyl)methyl]-1-methyl-2-[(4-methylphenyl)sulfonylmethyl]-1H-indole-3-carboxylate] was tested, and the IC50 (HBV DNA) was 2 µg/mL (≈ 4.28 µM), the “DNA replication SI” value (HBV DNA) was 8.9 and the TC50 (2.2.15 cells) was 17.7 µg/mL (≈ 37.9 µM).
In the case of `CCOC(=O)c1c(CS(=O)(=O)Cc2ccc(F)cc2)n(C)c2cc(Br)c(O)c(Cn3ccnc3)c12` [Example 163, Ethyl 6-bromo-5-hydroxy-4-[(1-imidazolyl)methyl]-1-methyl-2-[(4-fluorobenzyl)sulfonylmethyl]-1H-indole-3-carboxylate], the IC50 (HBV DNA) is reported as 0.68 µg/mL (≈ 1.2 µM), the “DNA replication SI” value (HBV DNA) is reported as 31.45 and the TC50 (2.2.15 cells) is reported as 21.39 µg/mL (≈ 37.9 µM).
With `CCOC(=O)c1c(CS(=O)(=O)c2ccc(F)c(F)c2)n(C2CC2)c2cc(Br)c(O)c(Cn3ccnc3)c12` [Example 160, Ethyl 6-bromo-1-cyclopropyl-5-hydroxy-4-[(1-imidazolyl)methyl]-2-[(3,4-difluorophenyl)sulfonylmethyl]-1H-indole-3-carboxylate] the IC50 (HIV-1 protease) was 21.3 µM, the “inhibition ratio at 0.5 ug/ml” value (HIV-1 protease) was 6.1 and the “inhibition ratio at 2.0 ug/ml” value (HIV-1 protease) was 11.7. For the same molecule, the “inhibition ratio at 10 ug/ml” value (HIV-1 protease) was 29.1, the “inhibition ratio at 50 ug/ml” value (HIV-1 protease) was 71.8 and the “inhibition ratio at 250 ug/ml” value (HIV-1 protease) was 97.8.
With `CCOC(=O)c1c(C[S+]([O-])Cc2cccc(F)c2)n(C)c2cc(Br)c(O)c(CN3CCOCC3)c12` (stereo not drawn) [Example 87, Ethyl 6-bromo-5-hydroxy-1-methyl-4-(morpholinomethyl)-2-[(3-fluorobenzyl)sulfinylmethyl]-1H-indole-3-carboxylate] the IC50 (HBV DNA) was 0.53 µg/mL (≈ 0.934 µM), the “DNA replication SI” value (HBV DNA) was 40.35 and the TC50 (2.2.15 cells) was 21.39 µg/mL (≈ 37.7 µM).

Reference: patent publication US7960427B2, “5-hydroxyindole-3-carboxylate derivatives and uses thereof” (priority 2004, dated 2011)
